Patent US8759390B2, “Chromene modulators of chemokine receptor activity” (Bristol-Myers Squibb Company, priority 2008, dated 2014)
pKi: −log10 of the molar value. Where a name gives a salt, the structure may show the parent alone.

Biological target: T1, CCR2 (Homo sapiens, UniProt P41597)
T1 construct: THP-1 human monocytic leukemic cell line, which expresses endogenous CCR2; endogenous in cells; host or cells: THP-1 human monocytic leukemia cells, or human PBMC / human monocytes
T1 sequence (P41597 1-360 isoform P41597-2): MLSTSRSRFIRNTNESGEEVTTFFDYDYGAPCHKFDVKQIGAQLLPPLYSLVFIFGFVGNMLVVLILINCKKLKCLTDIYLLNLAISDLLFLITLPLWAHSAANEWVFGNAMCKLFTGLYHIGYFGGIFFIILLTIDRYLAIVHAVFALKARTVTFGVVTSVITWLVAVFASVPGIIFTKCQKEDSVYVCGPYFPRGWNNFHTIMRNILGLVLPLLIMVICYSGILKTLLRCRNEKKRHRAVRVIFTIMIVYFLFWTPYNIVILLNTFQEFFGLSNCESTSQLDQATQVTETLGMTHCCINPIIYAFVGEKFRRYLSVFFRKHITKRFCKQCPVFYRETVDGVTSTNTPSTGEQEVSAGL
Assay: CCR2 binding (125I-human MCP-1 competition on human PBMC / THP-1 cells)
Settings: n = 1 unless otherwise noted; tested in one of the assays described
Description: Antagonism of MCP-1 Binding to Human PBMC
Millipore filter plates (#MABVN1250) are treated with 100 μl of binding buffer (0.5% bovine serum albumin, 20 mM HEPES buffer and 5 mM magnesium chloride in RPMI 1640 media) for thirty minutes at room temperature. To measure binding, 50 μl of binding buffer, with or without a known concentration compound, is combined with 50 μl of ^125-I labeled human MCP-1 (to give a final concentration of […] radioligand) and 50 μl of binding buffer containing 5×10^5 cells. Cells used for such binding assays can include human peripheral blood mononuclear cells isolated by Ficoll-Hypaque gradient centrifugation, human monocytes (Weiner et al., J. Immunol. Methods. 1980, 36, 89), or the THP-1 cell line which expresses the endogenous receptor. The mixture of compound, cells and radioligand are incubated at room temperature for thirty minutes. Plates are placed onto a vacuum manifold, vacuum applied, and the plates washed three times with binding buffer containing 0.5M NaCl. The plastic skirt is removed from the plate, the plate allowed to air dry, the wells punched out and counted. The percent inhibition of binding is calculated using the total counts obtained in the absence of any competing compound and the background binding determined by addition of 100 nM MCP-1 in place of the test compound.
THP-1 Monocytic Cell Binding: Whole Cell-Based Assay
The human CCR2 binding assay was also established with the THP-1 human monocytic leukemic cell line, which expresses endogenous CCR2, using ^125I-human MCP-1 as the tracer ligand. Radioligand competition binding assays were used for assessment of binding affinity of test compounds to the CCR2 receptor. For radioligand competition studies, 100 μl containing 2.5×10^5 THP-1 cells/well (in assay buffer containing 50 mM HEPES, pH7.4, 5mM MgCl2, 1 mM CaCl2 and 0.5% BSA) were added to 96-well assay plates containing the test compounds in 3-fold serial dilution, with final concentrations ranging from 5 μM to […]. Subsequently, 50 μl ^125I-MCP-1 radioligand at a final concentration of 0.2 nM in assay buffer were added to the reaction. After a 90 minute incubation period at room temperature, the binding reaction was terminated by harvesting on GF/B filter plates (PerkinElmer Cat. No. 6005177) followed by washing with ice-cold wash buffer (50 mM HEPES, pH 7.4, 0.1% BSA, 0.5 M NaCl) to remove unbound ligand. After washing, the plate was dried for 45 minutes at 60° C. followed by addition of 40 μl MicroScint 20 scintillation fluid, sealed and analyzed by the Packard TopCount reader. Non-specific binding was determined in the presence of 10 μM (a molar excess of […]) of an in-house CCR2 small molecule antagonist (CCR2 IC50=2 nM). Specific binding of ^125I-MCP-1 was calculated as the difference between total and non-specific binding. The competition data was plotted as a percentage inhibition of radioligand specific bound in the absence of test compound (percent of total signal). After correcting for non-specific binding, IC50 values were determined The IC50 is defined as the concentration of test compound required to reduce ^125I-MCP-1 specific binding by 50% and was calculated using the four parameter logistic equation to fit the normalized data.

SMILES	pKi
O=C(O)C1=Cc2ccc(F)cc2OC1c1ccc(Cl)c(Cl)c1 (racemic) [Example 9-1, 2-(3,4-dichlorophenyl)-7-fluoro-2H-chromene-3-carboxylic acid]	6.46
COc1ccc2c(c1)C=C(C(=O)O)C(c1ccc(Cl)c(Cl)c1)O2 (racemic) [Example 8, 2-(3,4-dichlorophenyl)-6-methoxy-2H-chromene-3-carboxylic acid]	6.44
O=C(O)C1=Cc2ccccc2OC1c1ccncc1 (racemic) [Example 5-3, 2-(pyridin-4-yl)-2H-chromene-3-carboxylic acid trifluoroacetic acid salt]	5.74
O=C(O)C1=Cc2ccccc2OC1c1ccc(Br)cc1 (racemic) [Example 5-15, 2-(4-bromophenyl)-2H-chromene-3-carboxylic acid]	6.37
O=C(O)C1=Cc2ccccc2OC1c1cccc(C(F)(F)F)n1 (racemic) [Example 5-25, 2-(6-trifluoromethyl-pyridin-2-yl)-2H-chromene-3-carboxylic acid]	5.08
O=C(O)C1=Cc2ccccc2OC1c1cccc(F)c1 (racemic) [Example 5-6, 2-(3-fluorophenyl)-2H-chromene-3-carboxylic acid]	5.24
O=C(O)C1=Cc2ccccc2OC1c1ccc(Cl)c(F)c1 (racemic) [Example 5-7, 2-(3-fluoro-4-chlorophenyl)-2H-chromene-3-carboxylic acid]	6.54
O=C(O)C1=Cc2ccccc2OC1c1cccc([N+](=O)[O-])c1 (racemic) [Example 5-12, 2-(3-nitrophenyl)-2H-chromene-3-carboxylic acid]	5.55
O=C(O)C1=Cc2ccccc2OC1c1ccc(Br)c(Br)c1 (racemic) [Example 5-17, 2-(3,4-dibromophenyl)-2H-chromene-3-carboxylic acid]	7.07
O=C(O)C1=Cc2ccccc2OC1c1ccccn1 (racemic) [Example 5-21, 2-(pyridin-2-yl)-2H-chromene-3-carboxylic acid]	5.85
O=C(O)C1=Cc2ccccc2OC1c1ccc(F)c(Cl)c1 (racemic) [Example 5-8, 2-(3-chloro-4-fluorophenyl)-2H-chromene-3-carboxylic acid]	6.25
O=C(O)C1=Cc2ccccc2OC1c1ccc(Cl)c(Cl)c1 (racemic) [Example 5-1, 2-(3,4-dichlorophenyl)-2H-chromene-3-carboxylic acid]	6.85
O=C(O)C1=Cc2ccccc2OC1c1cnc2ccccc2c1 (racemic) [Example 5-23, 2-(quinolin-3-yl)-2H-chromene-3-carboxylic acid]	5.37
Cc1ccc(C2Oc3ccccc3C=C2C(=O)O)cc1 (racemic) [Example 5-19, 2-(4-methylphenyl)-2H-chromene-3-carboxylic acid]	5.35
O=C(O)C1=Cc2ccccc2OC1c1ccc(Cl)c([N+](=O)[O-])c1 (racemic) [Example 5-13, 2-(3-nitro-4-chlorophenyl)-2H-chromene-3-carboxylic acid]	6.64
O=C(O)C1=Cc2ccccc2OC1c1cccc2ccccc12 (racemic) [Example 5-5, 2-(naphthalen-1-yl)-2H-chromene-3-carboxylic acid]	5.77
O=C(O)C1=Cc2ccccc2OC1c1ccc(Cl)cc1 (racemic) [Example 2-2, 2-(4-chlorophenyl)-2H-chromene-3-carboxylic acid]	6.02
O=C(O)C1=Cc2ccccc2OC1c1ccc(C(F)(F)F)c(F)c1 (racemic) [Example 5-18, 2-(3-fluoro-4-trifluoromethylphenyl)-2H-chromene-3-carboxylic acid]	6.14
O=C(O)C1=Cc2ccccc2OC1c1ccc(Cl)c(Br)c1 (racemic) [Example 7-4, 2-(3-bromo-4-chlorophenyl)-2H-chromene-3-carboxylic acid]	6.77
O=C(O)C1=Cc2ccccc2OC1c1ccc(C(F)(F)F)cc1 (racemic) [Example 5-10, 2-(4-trifluoromethylphenyl)-2H-chromene-3-carboxylic acid]	6.04
O=C(O)C1=Cc2ccccc2OC1c1cccc(Cl)c1 (racemic) [Example 1, 2-(3-chlorophenyl)-2H-chromene-3-carboxylic acid]	5.70
CCC1(c2ccc(Cl)c(Cl)c2)Oc2ccccc2C=C1C(=O)O (racemic) [Example 4-2, 2-(3,4-dichlorophenyl)-2-ethyl-2H-chromene-3-carboxylic acid]	5.92
O=C(O)C1=Cc2ccccc2OC1c1ccc(F)c(F)c1 (racemic) [Example 5-11, 2-(3,4-difluorophenyl)-2H-chromene-3-carboxylic acid]	5.07
CC1(c2ccc(Cl)c(Cl)c2)Oc2ccccc2C=C1C(=O)O (racemic) [Example 4-1, 2-(3,4-dichlorophenyl)-2-methyl-2H-chromene-3-carboxylic acid]	6.66

Results, then the compound that gave them:

pKi	SMILES
5.54	COc1cc(C2Oc3ccccc3C=C2C(=O)O)ccc1Cl (racemic) [Example 7-1, 2-(3-methoxy-4-chlorophenyl)-2H-chromene-3-carboxylic acid]
7.10	O=C(O)C1=Cc2ccccc2OC1c1ccc(Cl)c(Cl)c1 (single isomer, unassigned; (-)) [Example 6a, (−)-2-(3,4-dichlorophenyl)-2H-chromene-3-carboxylic acid]
5.77	O=C(O)C1=Cc2ccccc2OC1c1cccc(Br)c1 (racemic) [Example 5-16, 2-(3-bromophenyl)-2H-chromene-3-carboxylic acid]
5.59	O=C(O)C1=Cc2ccccc2OC1c1cccc(Cl)c1Cl (racemic) [Example 5-26, 2-(2,3-dichlorophenyl)-2H-chromene-3-carboxylic acid]
6.47	O=C(O)C1=Cc2cc(F)ccc2OC1c1ccc(Cl)c(Cl)c1 (racemic) [Example 9-4, 2-(3,4-dichlorophenyl)-6-fluoro-2H-chromene-3-carboxylic acid]
5.28	COc1ccc(C2Oc3ccccc3C=C2C(=O)O)cc1 (racemic) [Example 2-3, 2-(4-methoxyphenyl)-2H-chromene-3-carboxylic acid]
6.52	COc1ccc2c(c1)OC(c1ccc(Cl)c(Cl)c1)C(C(=O)O)=C2 (racemic) [Example 9-6, 2-(3,4-dichlorophenyl)-7-methoxy-2H-chromene-3-carboxylic acid]
6.80	Cc1cc(C2Oc3ccccc3C=C2C(=O)O)ccc1Cl (racemic) [Example 5-14, 2-(3-methyl-4-chlorophenyl)-2H-chromene-3-carboxylic acid]
5.35	O=C(O)C1=Cc2ccccc2OC1c1cc(Cl)cc(Cl)c1 (racemic) [Example 2-4, 2-(3,5-dichlorophenyl)-2H-chromene-3-carboxylic acid]
6.24	O=C(O)C1=Cc2ccccc2OC1c1cnc(Cl)c(Cl)c1 (racemic) [Example 7-3, 2-(5,6-dichloropyridin-3-yl)-2H-chromene-3-carboxylic acid]
5.80	O=C(O)C1=Cc2ccccc2OC1c1cccc(C(F)(F)F)c1 (racemic) [Example 5-9, 2-(3-trifluoromethylphenyl)-2H-chromene-3-carboxylic acid]
5.38	Cc1cccc(C2Oc3ccccc3C=C2C(=O)O)c1 (racemic) [Example 5-20, 2-(3-methylphenyl)-2H-chromene-3-carboxylic acid]
6.52	O=C(O)C1=Cc2cc(Cl)ccc2OC1c1ccc(Cl)c(Cl)c1 (racemic) [Example 9-2, 2-(3,4-dichlorophenyl)-6-chloro-2H-chromene-3-carboxylic acid]
